According to US5929038A, “Pharmaceutical preparations which inhibit hepatitis B virus (HBV) replication” (Choongwae Pharmaceutical Co., Ltd., priority 1992, dated 1999):
Values joined by “and” are separate entries in the source; they are usually repeats but may differ in a detail not shown here. Equal entries are not always repeated. Where two headings read alike, the source gives them in different places.

Legend:
HBV DNA replication = experiment: Effects on HBV DNA replication in 2.2.15 cells in culture (intracellular HBV DNA and HBV virion DNA); format: cell-based, hepatitis B virus
2.2.15 cells = experiment: Cell toxicity test (neutral red dye uptake); format: cell-based; conditions: plate 23
Description: Toxicity testing was performed in 96-well flat bottomed tissue culture plates. These cells were cultured and treated on same schedule as the test compounds used for antiviral evaluation (example 1). Each group at four concentrations was tested in triplicate cultures. Uptake of neutral red dye was used to determine the relative level of toxicity. The absorbance of internalized dye at 510 nm (A510) was used for the quantitative analysis. Values are presented as a percentage of the average A510 values (mean ± standard deviation) in 9 separate cultures of untreated cells maintained on the same 96-well plate as used for the test compound. The percentage of dye uptake in the 9 controlled cultures on plate 23 was 100±4.

mice = format: in vivo; conditions: for Alkaline phosphatase / SGOT / Triglyceride: serum at 24 hours; for Fatalities: 24 hours, ten mice
gram positive bacteria = conditions: cited from earlier work
[1] = system: hepatic damage induced by carbon tetrachloride; conditions: laboratory animals; cited from earlier work
[2] = system: liver damage caused by α-amantin intoxication; conditions: mice; cited from earlier work
Sarcoma 180 cells = conditions: cited from earlier work
[3] = 1000 μM + Gly. (glucosidase, no incubation), 24 hrs following the 9th day of treatment

OCC1=CC(O)C2C=COC(O[C@@H]3O[C@H](CO)[C@@H](O)[C@H](O)[C@H]3O)C12 (stereo partly drawn) [Aucubin, 1,4,5, 7α-tetrahydro-5-hydroxy-17-(hydroxymethyl)cyclopenta[c]pyran-1-yl-β-D-glucopyranose]
HBV Virion DNA, Day 9 (HBV DNA replication; 1000 μM + 30'Gly.): 2 pg/ml culture medium and 3 pg/ml culture medium
Intracellular HBV DNA, Mono. (HBV DNA replication; [3]): 2.2 pg/μg cell DNA and 2.1 pg/μg cell DNA and 2.3 pg/μg cell DNA and 2.6 pg/μg cell DNA
Intracellular HBV DNA, RI (Replicating Intermediate) (HBV DNA replication; [3]): 3 pg/μg cell DNA and 2 pg/μg cell DNA
HBV Virion DNA, Day 0 (HBV DNA replication; 1000 μM + Gly., Day 0, before first dose): 64 pg/ml culture medium and 81 pg/ml culture medium and 80 pg/ml culture medium
HBV Virion DNA, Day 3 (HBV DNA replication; 1000 μM + Gly., Day 3): 70 pg/ml culture medium and 67 pg/ml culture medium
HBV Virion DNA, Day 6 (HBV DNA replication; 1000 μM + Gly., Day 6): 25 pg/ml culture medium and 18 pg/ml culture medium and 22 pg/ml culture medium and 20 pg/ml culture medium
HBV Virion DNA, Day 9 (HBV DNA replication; 1000 μM + Gly.): 1 pg/ml culture medium
Amount of dye uptake (2.2.15 cells; Aucubin + 30'GLY. (preincubated 30 min with glucosidase), 300 μM): 99 ± 2 % of control
Amount of dye uptake (2.2.15 cells; Aucubin + 30'GLY. (preincubated 30 min with glucosidase), 1000 μM): 99 ± 2 % of control
Amount of dye uptake (2.2.15 cells; Aucubin + 30'GLY. (preincubated 30 min with glucosidase), 3000 μM): 82 ± 2 % of control
Amount of dye uptake (2.2.15 cells; Aucubin + 30'GLY. (preincubated 30 min with glucosidase), 10,000 μM): 67 ± 3 % of control
Amount of dye uptake (2.2.15 cells; Aucubin + GLY. (glucosidase without preincubation), 300 μM): 99 ± 2 % of control
Amount of dye uptake (2.2.15 cells; Aucubin + GLY. (glucosidase without preincubation), 1000 μM): 99 ± 1 % of control
Amount of dye uptake (2.2.15 cells; Aucubin + GLY. (glucosidase without preincubation), 3000 μM): 93 ± 5 % of control
Amount of dye uptake (2.2.15 cells; Aucubin + GLY. (glucosidase without preincubation), 10,000 μM): 63 ± 6 % of control
Amount of dye uptake (2.2.15 cells; Aucubin alone, 300 μM): 99 ± 1 % of control
Amount of dye uptake (2.2.15 cells; Aucubin alone, 1000 μM): 100 ± 1 % of control
Amount of dye uptake (2.2.15 cells; Aucubin alone, 3000 μM): 85 ± 3 % of control
Amount of dye uptake (2.2.15 cells; Aucubin alone, 10,000 μM): 45 ± 3 % of control
Alkaline phosphatase (mice; 100 mg/kg i.p.): 236 IU/L
SGOT (mice; 100 mg/kg i.p.): 261 IU/L
Fatalities (mice; 100 mg/kg intraperitoneal single dose): 0 No.
Alkaline phosphatase (mice; 300 mg/kg i.p.): 157 IU/L
SGOT (mice; 300 mg/kg i.p.): 194 IU/L
Triglyceride (mice; 300 mg/kg i.p.): 35 mg/dL
Fatalities (mice; 300 mg/kg intraperitoneal single dose): 0 No.
Alkaline phosphatase (mice; 600 mg/kg i.p.): 135 IU/L
SGOT (mice; 600 mg/kg i.p.): 179 IU/L
Triglyceride (mice; 600 mg/kg i.p.): 39 mg/dL
Fatalities (mice; 600 mg/kg intraperitoneal single dose): 0 No.
SGOT (mice; 900 mg/kg i.p.): 162 IU/L
Triglyceride (mice; 900 mg/kg i.p.): 51 mg/dL
Fatalities (mice; 900 mg/kg intraperitoneal single dose): 0 No.
fatality (in words) (mice; 100-900 mg/kg i.p.): no fatality
activities of SGOT and alkaline phosphatase (mice; high dose): slight decline
serious toxic effect (in words) (mice; high dose): no serious toxic effect occurred
triglyceride contents (mice; high dose): elevated slightly
minimum fatal dose (mice; mouse, in vivo, ip): more than 900 mg/kg
Antibacterial activity (gram positive bacteria): Antibacterial activity was noted mainly on gram positive bacteria
Liver-protective activity against carbon tetrachloride [1]: protect the liver from hepatic damage induced by carbon tetrachloride intoxication
Liver-protective activity against α-amantin [2]: protects the liver from damages caused by α-amantin intoxication in mice
Inhibitory effects on RNA and protein biosynthesis (Sarcoma 180 cells): can exert inhibitory effects on RNA and protein biosynthesis in Sarcoma 180 cells
